Measured values published in US9216170B2, “Combination therapy for proliferative disorders” (Hoffman-La Roche Inc., priority 2012, dated 2015).
Read-outs that look alike come from different tables or passages of the source.

How the values were obtained:
RKO cell xenografts [1] = assay: Tumor growth inhibition in RKO xenograft-bearing mice; assay type: in vivo; conditions: for Mean Tumor Volume (mm^3) Start Study DAY: 14: baseline; for Full Regression / Partial Regression: number of animals
Description: (§1) Mice were implanted with RKO cell xenografts. The mice, cell line used, and implantation are described below.
(§2) RKO cells (American Type Culture Collection, Rockville, Md.) were maintained in DMEM media+10% (v/v) heat-inactivated FBS+1% (v/v) […] L-glutamine. Each mouse received 2×10^6 cells in a total volume of 0.2 ml. Cells were implanted subcutaneously in the right flank of each mouse using a 1 cc syringe and a 26 gauge needle.
(§3) RKO xenograft-containing mice were randomized into groups of 10 mice each according to tumor volume so that all groups had similar starting mean tumor volumes of about 145 mm^3.
(§4) 10 groups of mice were used.
(§5) Treatment duration was 2 weeks.
Efficacy data was graphically represented as the mean tumor volume±standard error of the mean (SEM). Tumor volumes of treated groups were presented as percentages of tumor volumes of the control groups (% T/C), using the formula: 100×((T−T0)/(C−C0)), where T represented mean tumor volume of a treated group on a specific day during the experiment, T0 represented mean tumor volume of the same […] group on the first day of treatment; C represented mean tumor volume of a control group on the specific day during the experiment, and C0 represented mean tumor volume of the same […] group on the first day of treatment.
Tumor volume (in cubic millimeters) was calculated using the ellipsoid formula: (D×(d2))/2 where ‘D’ represents the large diameter of the tumor, and ‘d’ represents the small diameter.
Statistical analysis of treated groups was compared with the vehicle group with Mann-Whitney Rank Sum Test, comparisons between groups were analyzed by one-way ANOVA, and post-hoc Bonferroni t-test (GraphPad Prism, version 5.03). Differences between groups were considered to be significant when the probability value (p) was ≦0.05.

RKO cell xenografts [2] = assay: Assessment of survival / increase in life span (ILS) in RKO xenograft-bearing mice; assay type: in vivo; conditions: for % Increased Life Span: Table 3; for % ILS: Table 4; for 50% Treatment Days: median survival day
Description: as §1, §2, §3, §4, §5
For survival assessment, results are plotted as the percentage survival against days after tumor implant (GraphPad Prism, version 5.03). An individual tumor volume of 1500 mm^3 was used as a surrogate for death. The % ILS was calculated as 100×[(median survival day of treated group−median survival day of control group)/median survival day of control group]. Median survival was determined utilizing Kaplan Meier survival analysis. Survival in treated groups was compared with the vehicle group by Log-rank (Mantel-Cox) Test (GraphPad Prism, version 4.3, La Jolla, Calif.). Differences between groups were considered significant when the probability value (p) was ≦0.05.

[3] = Compound III 100 mg/kg qweekly po
[4] = Compound II 200 mg/kg qweekly po

Structure (SMILES): COc1cc(C(=O)O)ccc1NC(=O)[C@@H]1N[C@@H](CC(C)(C)C)[C@](C#N)(c2ccc(Cl)cc2F)[C@H]1c1cccc(Cl)c1F [Compound III]
- % Inhibition end of study Day: 28 (RKO cell xenografts [1]; Compound III 80 mg/kg qdx5 po): 65%
- % T/C end of study Day: 28 (RKO cell xenografts [1]; Compound III 80 mg/kg qdx5 po): 35%
- Mean Tumor Volume (mm^3) End Study DAY: 29 (RKO cell xenografts [1]; Compound III 80 mg/kg qdx5 po): 705.24 mm^3
- Mean Tumor Volume (mm^3) Start Study DAY: 14 (RKO cell xenografts [1]; Compound III 80 mg/kg qdx5 po): 143.00 mm^3
- Full Regression (RKO cell xenografts [1]; Compound III 80 mg/kg qdx5 po): 0
- Partial Regression (RKO cell xenografts [1]; Compound III 80 mg/kg qdx5 po): 0
- % Inhibition end of study Day: 28 (RKO cell xenografts [1]; [3]): 50%
- % T/C end of study Day: 28 (RKO cell xenografts [1]; [3]): 50%
- Mean Tumor Volume (mm^3) End Study DAY: 29 (RKO cell xenografts [1]; [3]): 952.64 mm^3
- Mean Tumor Volume (mm^3) Start Study DAY: 14 (RKO cell xenografts [1]; [3]): 147.78 mm^3
- Full Regression (RKO cell xenografts [1]; [3]): 0
- Partial Regression (RKO cell xenografts [1]; [3]): 0
- % Increased Life Span (RKO cell xenografts [2]; Compound III 80 mg/kg qdx5 po): 29%
- % Increased Life Span (RKO cell xenografts [2]; [3]): 29%
- % ILS (RKO cell xenografts [2]; Compound III 80 mg/kg): 29%
- % ILS (RKO cell xenografts [2]; Compound III 100 mg/kg): 29%
- 50% Treatment Days (RKO cell xenografts [2]; Compound III 80 mg/kg): 31 days
- 50% Treatment Days (RKO cell xenografts [2]; Compound III 100 mg/kg): 31 days
- # of animals ≧ 20% BWL (Compound III 80 mg/kg qdx5 po): 0
- % Change in Body Weight at end of Study Day 28 (Compound III 80 mg/kg qdx5 po): 5.3%
- Max % Weight Gain (Compound III 80 mg/kg qdx5 po): 7.4%
- Max % Weight Loss (Compound III 80 mg/kg qdx5 po): 5.3%
- Mortality (Compound III 80 mg/kg qdx5 po): 0
- # of animals ≧ 20% BWL [3]: 0
- % Change in Body Weight at end of Study Day 28 [3]: 6.6%
- Max % Weight Gain [3]: 7.5%
- Max % Weight Loss [3]: 4.7%
- Mortality [3]: 0

Structure (SMILES): CCOc1cc(C(C)(C)C)ccc1C1=N[C@@](C)(c2ccc(Cl)cc2)[C@@](C)(c2ccc(Cl)cc2)N1C(=O)N1CCN(CCCS(C)(=O)=O)CC1 [Compound II]
- % Inhibition end of study Day: 28 (RKO cell xenografts [1]; Compound II 100 mg/kg qd po): 64%
- % T/C end of study Day: 28 (RKO cell xenografts [1]; Compound II 100 mg/kg qd po): 36%
- Mean Tumor Volume (mm^3) End Study DAY: 29 (RKO cell xenografts [1]; Compound II 100 mg/kg qd po): 726.30 mm^3
- Mean Tumor Volume (mm^3) Start Study DAY: 14 (RKO cell xenografts [1]; Compound II 100 mg/kg qd po): 146.39 mm^3
- Full Regression (RKO cell xenografts [1]; Compound II 100 mg/kg qd po): 0
- Partial Regression (RKO cell xenografts [1]; Compound II 100 mg/kg qd po): 0
- % Inhibition end of study Day: 28 (RKO cell xenografts [1]; [4]): 18%
- % T/C end of study Day: 28 (RKO cell xenografts [1]; [4]): 82%
- Mean Tumor Volume (mm^3) End Study DAY: 29 (RKO cell xenografts [1]; [4]): 1466.93 mm^3
- Mean Tumor Volume (mm^3) Start Study DAY: 14 (RKO cell xenografts [1]; [4]): 141.33 mm^3
- Full Regression (RKO cell xenografts [1]; [4]): 0
- Partial Regression (RKO cell xenografts [1]; [4]): 0
- % Increased Life Span (RKO cell xenografts [2]; Compound II 100 mg/kg qd po): 29%
- % Increased Life Span (RKO cell xenografts [2]; [4]): 0%
- % ILS (RKO cell xenografts [2]; Compound II 100 mg/kg): 29%
- % ILS (RKO cell xenografts [2]; Compound II 200 mg/kg): 0%
- 50% Treatment Days (RKO cell xenografts [2]; Compound II 100 mg/kg): 31 days
- 50% Treatment Days (RKO cell xenografts [2]; Compound II 200 mg/kg): 24 days
- Reason for mortality/morbidity (Compound II 100 mg/kg qd po): Technical

Structure (SMILES): CCCS(=O)(=O)Nc1ccc(F)c(C(=O)c2c[nH]c3ncc(-c4ccc(Cl)cc4)cc23)c1F [vemurafenib, Propane-1-sulfonic acid {3-[5-(4-chlorophenyl)-1H-pyrrolo[2,3-b]pyridine-3-carbonyl-2,4-difluoro-phenyl]-amide}, reference compound]
- % Inhibition end of study Day: 28 (RKO cell xenografts [1]; vemurafenib 50 mg/kg bid po): 7%
- % T/C end of study Day: 28 (RKO cell xenografts [1]; vemurafenib 50 mg/kg bid po): 93%
- Mean Tumor Volume (mm^3) End Study DAY: 29 (RKO cell xenografts [1]; vemurafenib 50 mg/kg bid po): 1643.76 mm^3
- Mean Tumor Volume (mm^3) Start Study DAY: 14 (RKO cell xenografts [1]; vemurafenib 50 mg/kg bid po): 142.50 mm^3
- Full Regression (RKO cell xenografts [1]; vemurafenib 50 mg/kg bid po): 0
- Partial Regression (RKO cell xenografts [1]; vemurafenib 50 mg/kg bid po): 0
- % Increased Life Span (RKO cell xenografts [2]; vemurafenib 50 mg/kg bid po): 0%
- % ILS (RKO cell xenografts [2]; vemurafenib 50 mg/kg): 0%
- 50% Treatment Days (RKO cell xenografts [2]; vemurafenib 50 mg/kg): 24 days
- # of animals ≧ 20% BWL (vemurafenib 50 mg/kg bid po): 0
- % Change in Body Weight at end of Study Day 28 (vemurafenib 50 mg/kg bid po): 4.6%
- Max % Weight Gain (vemurafenib 50 mg/kg bid po): 7.5%
- Max % Weight Loss (vemurafenib 50 mg/kg bid po): 2.8%
- Mortality (vemurafenib 50 mg/kg bid po): 0
